Results on ten compounds are retold here after ChEMBL document CHEMBL1201862, “PubChem BioAssay data set” (2004).

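In this assay, cells in 96-well plates receive the compound at five concentrations for 48 hours. Endpoints are linearly interpolated between the surrounding concentrations. The concentration for 50% growth inhibition is given as GI50.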 Calls of active or inactive are those of the source. Cut-off read from the data, not from the text of the source: active = GI50 up to about 1.1 µM and inactive = higher.

Among the test systems are NCI-H226; SK-MEL-5; U-251; MCF7; HCC 2998; Malme-3M; BT-549; UACC-257; COLO 205; HCT-15; SN12C; OVCAR-5; PC-3; UACC-62; MDA-MB-231; DU-145; SNB-19; SR; NCI-H460; IGROV-1.
Assay in all cases: DTP human tumour cell line panel, 48 h

As a reminder, the GI50 is the concentration that inhibits growth by half. For `Oc1c2ccccc2c2c3c(cccc13)N=N2` [SP-600125], the GI50 in the test with NCI-H226 is 22.9 µM (inactive); in the test on SK-MEL-5, 14.6 µM (inactive); in the test with U-251, 23.1 µM (inactive); with MCF7 it was 49 µM (inactive); in the test with HCC 2998, 9.62 µM (inactive); in the test with Malme-3M, 16.4 µM (inactive). Further, the GI50 is 30.8 µM (inactive) in the test with BT-549; 29.5 µM (inactive) in the test on UACC-257; 19.5 µM (inactive) with COLO 205; 8.04 µM in the test on HCT-15; 14.8 µM (inactive) with SN12C; 24.4 µM (inactive) with OVCAR-5. Besides, the GI50 is 23.3 µM (inactive) in the test with PC-3; 14.6 µM (inactive) in the test on UACC-62; 65.3 µM (inactive) in the test with MDA-MB-231; 28.2 µM (inactive) in the test on DU-145; 50 µM (inactive) with SNB-19; 13.1 µM (inactive) in the test on SR. Further, the figures for the GI50 in the test on NCI-H460 and in the test with IGROV-1 were 9.86 µM (inactive) and 11.4 µM (inactive), respectively.
For the compound `N#C/C(N)=C(C#N)/N=C/Nc1ccc(N)cc1`, the GI50 in the test with NCI-H226 was > 100 µM (inactive); in the test with SK-MEL-5, 29.2 µM (inactive); in the test with U-251, > 100 µM (inactive); in the test on MCF7 it was 96.6 µM (inactive); in the test on HCC 2998 it was > 100 µM (inactive); in the test with Malme-3M, > 100 µM (inactive). Besides, the GI50 is > 100 µM (inactive) with BT-549; > 100 µM (inactive) in the test with UACC-257; > 100 µM (inactive) in the test with COLO 205; over 100 µM with HCT-15; > 100 µM (inactive) with SN12C; > 100 µM (inactive) in the test with OVCAR-5. In addition, the GI50 in the test on PC-3, in the test with UACC-62, in the test with MDA-MB-231, in the test with DU-145, in the test with SNB-19 and in the test with SR was > 100 µM (inactive) each time. Further, the GI50 in the test with NCI-H460 and in the test with IGROV-1 was > 100 µM (inactive) in each case.
In the case of `O=C1C(Br)=C(Br)C(=O)c2ccc(=O)ccc21`, the GI50 in the test with NCI-H226 was > 53 µM (inactive); in the test on SK-MEL-5, 21 µM (inactive); in the test on U-251, 38.3 µM (inactive); in the test on MCF7 it was 18.6 µM (inactive); in the test on HCC 2998 it was > 85.1 µM (inactive); in the test with Malme-3M, 19.9 µM (inactive). The GI50 in the test on BT-549 is 24.2 µM (inactive); in the test on UACC-257, 24.7 µM (inactive); with COLO 205, 13.3 µM (inactive); in the test with HCT-15, 18.7 µM; with SN12C it was 19.1 µM (inactive); in the test with OVCAR-5, 50.5 µM (inactive). The GI50 in the test with PC-3 was > 56.5 µM (inactive); with UACC-62, 19.5 µM (inactive); in the test on MDA-MB-231 it was 19.9 µM (inactive); in the test on DU-145, > 100 µM (inactive); in the test with SNB-19, > 100 µM (inactive); in the test on SR it was 26.1 µM (inactive). The results for the GI50 with NCI-H460 and with IGROV-1 were 38.8 µM (inactive) and > 52.2 µM (inactive), respectively.
With `O=C(O)c1nc2cc(Cl)ccc2[nH]c1=O`, the GI50 in the test with NCI-H226, in the test on SK-MEL-5, in the test with U-251, with MCF7, with HCC 2998 and in the test with Malme-3M was > 100 µM (inactive) in each case. The GI50 in the test on BT-549 is > 100 µM (inactive); in the test with UACC-257 it was > 100 µM (inactive); in the test on COLO 205, > 100 µM (inactive); in the test with HCT-15, over 100 µM; in the test with SN12C it was > 100 µM (inactive); in the test with OVCAR-5, > 100 µM (inactive). Further, the GI50 in the test with PC-3, with UACC-62, with MDA-MB-231, in the test on DU-145, with SNB-19 and in the test on SR was > 100 µM (inactive) in each case. Besides, the GI50 with NCI-H460 and in the test on IGROV-1 was > 100 µM (inactive) each time.
Take `COc1ccc(-n2c(C)nc3ccc(NC4OC(COC(C)=O)C(OC(C)=O)C(OC(C)=O)C4OC(C)=O)cc3c2=O)cc1` (centres undefined): the GI50 in the test with NCI-H226 is 32.7 µM (inactive); in the test with SK-MEL-5, > 100 µM (inactive); in the test on U-251 it was > 100 µM (inactive); in the test on MCF7, 45.9 µM (inactive); with HCC 2998, > 100 µM (inactive); with Malme-3M it was 69.3 µM (inactive). Moreover, the GI50 with BT-549 was > 100 µM (inactive); in the test with UACC-257, > 100 µM (inactive); with COLO 205 it was 18.6 µM (inactive); with HCT-15, 76 µM; in the test on SN12C it was 32 µM (inactive); in the test with OVCAR-5, > 100 µM (inactive). The GI50 in the test with PC-3 was > 100 µM (inactive); in the test with UACC-62 it was 67 µM (inactive); in the test on MDA-MB-231, > 100 µM (inactive); in the test on DU-145, > 100 µM (inactive); with SNB-19, > 100 µM (inactive); with SR it was 73.3 µM (inactive). The GI50 in the test on NCI-H460 and in the test with IGROV-1 was > 100 µM (inactive) throughout.
`CC(C)(C)OC(=O)N1CCC2(CC1)C(=O)NCN2c1ccccc1`: the GI50 in the test with NCI-H226, in the test on SK-MEL-5, in the test on U-251, with MCF7, in the test with HCC 2998 and in the test with Malme-3M was > 100 µM (inactive) throughout. Moreover, the GI50 in the test on BT-549 is > 100 µM (inactive); with UACC-257, > 100 µM (inactive); in the test on COLO 205 it was > 100 µM (inactive); with HCT-15 it was over 100 µM; in the test with SN12C it was > 100 µM (inactive); in the test on OVCAR-5, > 100 µM (inactive). For the same compound, the GI50 in the test with PC-3, with UACC-62, in the test on MDA-MB-231, in the test with DU-145, in the test on SNB-19 and in the test with SR was > 100 µM (inactive) throughout. The GI50 with NCI-H460 and in the test with IGROV-1 was > 100 µM (inactive) throughout.
For `CN(C(=O)Cc1ccccc1)n1cn[n+](CC(=O)OC(C)(C)C)c1`, the GI50 with NCI-H226, with SK-MEL-5, in the test on U-251, in the test with MCF7, in the test on HCC 2998 and in the test with Malme-3M was > 10 µM (inactive) in each case. The GI50 with BT-549 is > 10 µM (inactive); in the test on UACC-257, > 10 µM (inactive); with COLO 205, > 10 µM (inactive); in the test on HCT-15, over 10 µM; in the test with SN12C, > 10 µM (inactive); with OVCAR-5, > 10 µM (inactive). The GI50 in the test with PC-3, in the test with UACC-62, in the test on MDA-MB-231, in the test with DU-145, in the test with SNB-19 and with SR was > 10 µM (inactive) in each case. The GI50 in the test with NCI-H460 and in the test on IGROV-1 was > 10 µM (inactive) in each case.
`N/C(=N\c1ccccc1Cl)c1ccccc1N`: the GI50 with NCI-H226, in the test with SK-MEL-5, with U-251, in the test with MCF7, in the test on HCC 2998 and in the test on Malme-3M was > 100 µM (inactive) each time. Further, the GI50 with BT-549 was > 100 µM (inactive); in the test on UACC-257, > 100 µM (inactive); in the test with COLO 205 it was > 100 µM (inactive); with HCT-15, over 100 µM; in the test with OVCAR-5 it was > 100 µM (inactive); in the test on PC-3, > 100 µM (inactive). Moreover, the GI50 with UACC-62, in the test with MDA-MB-231, in the test with DU-145, in the test with SNB-19, with SR and with NCI-H460 was > 100 µM (inactive) in each case. The GI50 in the test with IGROV-1 was 45.8 µM (inactive).
Consider `O=C1c2ccccc2C(=O)c2c(NC3CCCCC3)ccc(Nc3ccc(S(=O)(=O)O)cc3)c21`, for which the GI50 in the test on NCI-H226 was > 100 µM (inactive); in the test on SK-MEL-5 it was 63 µM (inactive); with U-251, 29.6 µM (inactive); with MCF7, 21.3 µM (inactive); in the test on HCC 2998, 26.5 µM (inactive); in the test on Malme-3M, 23.4 µM (inactive). Further, the GI50 with BT-549 was 43.8 µM (inactive); in the test with UACC-257 it was 23.9 µM (inactive); in the test on COLO 205, 20.1 µM (inactive); in the test with HCT-15, 32.6 µM; with SN12C it was 20.6 µM (inactive); in the test with OVCAR-5, > 100 µM (inactive). The GI50 was 22.6 µM (inactive) with PC-3; > 100 µM (inactive) in the test on UACC-62; 22.5 µM (inactive) in the test with MDA-MB-231; > 100 µM (inactive) in the test with DU-145; 84.5 µM (inactive) in the test with SNB-19; 36.1 µM (inactive) in the test with SR. Moreover, the GI50 in the test on NCI-H460 is 62.5 µM (inactive); in the test on IGROV-1 it was 32.7 µM (inactive).
With `CCOP(=O)(OCC)/C(C#N)=C\c1cccc2ccccc12`, the GI50 in the test with NCI-H226 is 32.4 µM (inactive); with SK-MEL-5, 39.5 µM (inactive); in the test on U-251, > 67.5 µM (inactive); with MCF7 it was 39.9 µM (inactive); in the test with HCC 2998 it was > 58.5 µM (inactive); with Malme-3M, 42.7 µM (inactive). Further, the GI50 was 51.9 µM (inactive) with BT-549; 71.3 µM (inactive) in the test on UACC-257; 91.8 µM (inactive) in the test with COLO 205; 42.7 µM with HCT-15; 82.4 µM (inactive) in the test on SN12C; > 100 µM (inactive) with OVCAR-5. The GI50 in the test on PC-3 is 64 µM (inactive); in the test with UACC-62 it was 35.5 µM (inactive); in the test on MDA-MB-231, 40.6 µM (inactive); with DU-145, 57.9 µM (inactive); in the test on SNB-19, > 57.1 µM (inactive); with SR, 31.8 µM (inactive). Moreover, the GI50 with NCI-H460 is > 91.8 µM (inactive); with IGROV-1, > 82.4 µM (inactive).
